Reference: PubChem BioAssay AID1259408 (Genetic Toxicology Data Bank (GENE-TOX), 2018)
Calls of active or inactive are those of the source. No rule for the calls is given here.

Test system: GENE-TOX genotoxicity assays, various organisms and cells
Assay: GENE-TOX mutagenicity studies
Conditions: for call: Assay Type: In vivo carcinogenicity studies
[1] = Species/Cell Type: Escherichia coli polA (W3119 vs P3478), Assay Type: Rec-assay, DNA effects (bacterial DNA repair), Assay Code: RE1+, Evaluation Type: Evaluation A (Pre-1980)
[2] = Species/Cell Type: Saccharomyces cerevisiae, Assay Type: Mitotic recombination or gene conversion, Assay Code: YEC+, Evaluation Type: Evaluation A (Pre-1980)
[3] = Species/Cell Type: Salmonella typhimurium (one or more of the five standard strains: TA98, TA100, TA1535, TA1537, and TA1538), Assay Type: Histidine reverse gene mutation, Ames assay, Assay Code: SAL+, Evaluation Type: Evaluation A (Pre-1980)
[4] = Species/Cell Type: Schizosaccharomyces pombe, Assay Type: Reverse gene mutation, Assay Code: YEZ+, Evaluation Type: Evaluation A (Pre-1980)
[5] = Species/Cell Type: Bacillus subtilis (H17 vs M45), Assay Type: Rec-assay, spot test, DNA effects (bacterial DNA repair), Assay Code: REWT, Evaluation Type: Evaluation A (Pre-1980)
[6] = Species/Cell Type: Escherichia coli polA (W3119 vs P3478), Assay Type: Rec-assay, DNA effects (bacterial DNA repair), Assay Code: RE1T, Evaluation Type: Evaluation A (Pre-1980)
[7] = Species/Cell Type: Saccharomyces cerevisiae, Assay Type: Mitotic recombination or gene conversion, Assay Code: YEH-, Evaluation Type: Evaluation A (Pre-1980)
[8] = Species/Cell Type: Salmonella typhimurium (one or more of the five standard strains: TA98, TA100, TA1535, TA1537, and TA1538), Assay Type: Histidine reverse gene mutation, Ames assay, Assay Code: SAL-, Evaluation Type: Evaluation A (Pre-1980)
[9] = Species/Cell Type: Bacillus subtilis (H17 vs M45T), Assay Type: Rec-assay, spot test, DNA effects (bacterial DNA repair), Assay Code: REXT, Evaluation Type: Evaluation A (Pre-1980)

## O=NO
Species/Cell Type: Arabidopsis species, Assay Type: Gene mutation, Assay Code: ARMT, Evaluation Type: Evaluation A (Pre-1980)
  mutagenic call: no conclusion
Species/Cell Type: Aspergillus nidulans, Assay Type: Forward gene mutation, Assay Code: ASF+, Evaluation Type: Evaluation A (Pre-1980)
  mutagenic call: active; positive
Species/Cell Type: Drosophila melanogaster, Assay Type: Sex-linked recessive lethal gene mutation, Assay Code: SRL+, Evaluation Type: Evaluation A (Pre-1980)
  mutagenic call: active; positive
[1]
  mutagenic call: active; positive
Species/Cell Type: Human lymphocytes, Assay Type: Sister-chromatid exchange (SCE) in vitro, Assay Code: SCL+, Evaluation Type: Evaluation B (Post-1980)
  mutagenic call: active; positive
Species/Cell Type: Human, Assay Type: Sister-chromatid exchange (SCE) in vitro, Assay Code: SC1+, Evaluation Type: Evaluation B (Post-1980)
  mutagenic call: active; positive
Species/Cell Type: Mammalian oocytes or early embryo, Assay Type: Chromosome aberrations in vivo, Assay Code: CYO+, Evaluation Type: Evaluation A (Pre-1980)
  mutagenic call: active; positive
Species/Cell Type: Mammalian polychromatic erythrocytes, Assay Type: Micronucleus test, chromosome aberrations, Assay Code: MNT+, Evaluation Type: Evaluation B (Post-1980)
  mutagenic call: active; positive
Species/Cell Type: Mammalian polychromatic erythrocytes, Assay Type: Micronucleus test, chromosome aberrations, Assay Code: MNTT, Evaluation Type: Evaluation A (Pre-1980)
  mutagenic call: no conclusion
Species/Cell Type: Mouse, Sex: Male, Assay Type: Heritable translocation test, chromosome aberrations, Assay Code: HTTT, Evaluation Type: Evaluation A (Pre-1980)
  mutagenic call: no conclusion
Species/Cell Type: Neurospora crassa, Assay Type: Forward gene mutation, Assay Code: NEF+, Evaluation Type: Evaluation A (Pre-1980)
  mutagenic call: active; positive
Species/Cell Type: Neurospora crassa, Assay Type: Reverse gene mutation, Assay Code: NER+, Evaluation Type: Evaluation A (Pre-1980)
  mutagenic call: active; positive
Species/Cell Type: Nonhuman, Assay Type: Chromosome aberrations in vitro, Assay Code: CY&+D, Dose Response: With dose response, Evaluation Type: Evaluation A (Pre-1980)
  mutagenic call: active; positive
Species/Cell Type: Nonhuman, Assay Type: Sister-chromatid exchange (SCE) in vitro, Assay Code: SC2+, Evaluation Type: Evaluation A (Pre-1980)
  mutagenic call: active; positive
Species/Cell Type: Nonhuman, Assay Type: Sister-chromatid exchange (SCE) in vivo, Assay Code: SC3T, Evaluation Type: Evaluation B (Post-1980)
  mutagenic call: no conclusion
Species/Cell Type: Rodents, Sex: Male, Assay Type: Dominant lethal test, Assay Code: DLT-, Evaluation Type: Evaluation A (Pre-1980)
  mutagenic call: inactive; negative
Species/Cell Type: Saccharomyces cerevisiae, Assay Type: Forward gene mutation, Assay Code: YEF+, Evaluation Type: Evaluation A (Pre-1980)
  mutagenic call: active; positive
[2]
  mutagenic call: active; positive
Species/Cell Type: Saccharomyces cerevisiae, Assay Type: Mitotic recombination or gene conversion, Assay Code: YEH+, Evaluation Type: Evaluation A (Pre-1980)
  mutagenic call: active; positive
Species/Cell Type: Saccharomyces cerevisiae, Assay Type: Reverse gene mutation, Assay Code: YER+, Evaluation Type: Evaluation A (Pre-1980)
  mutagenic call: active; positive
[3]
  mutagenic call: active; positive
Species/Cell Type: Salmonella typhimurium, Assay Type: Forward and reverse gene mutation, host-mediated assay, Assay Code: HMA-, Evaluation Type: Evaluation A (Pre-1980)
  mutagenic call: inactive; negative
Species/Cell Type: Schizosaccharomyces pombe, Assay Type: Forward gene mutation, Assay Code: YEY+, Evaluation Type: Evaluation A (Pre-1980)
  mutagenic call: active; positive
[4]
  mutagenic call: active; positive
Species/Cell Type: Syrian hamster embryo (SHE) cells, Assay Type: Cell transformation, clonal assay, Assay Code: CTC+, Evaluation Type: Evaluation A (Pre-1980)
  mutagenic call: active; positive

## O=C1c2c(O)ccc(O)c2C(=O)c2c(NCCNCCO)ccc(NCCNCCO)c21
Species/Cell Type: Nonhuman, Assay Type: Sister-chromatid exchange (SCE) in vitro, Assay Code: SC2+, Evaluation Type: Evaluation B (Post-1980)
  mutagenic call: active; positive

## ClC1CO1 (stereo not drawn)
Species/Cell Type: Chinese hamster lung (V79) cells, Assay Type: Forward gene mutation at the HPRT or ouabain locus, Assay Code: V79+, Evaluation Type: Evaluation A (Pre-1980)
  mutagenic call: active; positive
Species/Cell Type: Nonhuman, Assay Code: CCG+L, Evaluation Type: Evaluation A (Pre-1980)
  call: active; positive
[2]
  mutagenic call: active; positive
[3]
  mutagenic call: active; positive
[4]
  mutagenic call: active; positive

## COc1ccc(C(c2ccc(OC)cc2)C(Cl)(Cl)Cl)cc1
[5]
  mutagenic call: no conclusion
Species/Cell Type: Drosophila melanogaster, Assay Type: Sex-linked recessive lethal gene mutation, Assay Code: SRL-, Evaluation Type: Evaluation A (Pre-1980)
  mutagenic call: inactive; negative
Species/Cell Type: Escherichia coli WP2 UVRA, Assay Type: Tryptophan reverse gene mutation, Assay Code: WPU-*, Activation: With metabolic activation, Evaluation Type: Evaluation A (Pre-1980)
  mutagenic call: inactive; negative
[6]
  mutagenic call: no conclusion
Species/Cell Type: Fischer rat embryo (RLV/1706) cells, Assay Type: Cell transformation, viral enhanced, Assay Code: CTR-, Evaluation Type: Evaluation A (Pre-1980)
  mutagenic call: inactive; negative
Species/Cell Type: Human diploid fibroblasts, Assay Type: Unscheduled DNA synthesis (UDS) in vitro, DNA effects, Assay Code: UDH-, Evaluation Type: Evaluation A (Pre-1980)
  mutagenic call: inactive; negative
Species/Cell Type: Mouse (BALB/c-3T3) cells, Assay Type: Cell transformation, Assay Code: CTB+D, Dose Response: With dose response, Evaluation Type: Evaluation A (Pre-1980)
  mutagenic call: active; positive
Species/Cell Type: Nonhuman, Assay Code: CCG-, Evaluation Type: Evaluation A (Pre-1980)
  call: inactive; negative
[7]
  mutagenic call: inactive; negative
[8]
  mutagenic call: inactive; negative
Species/Cell Type: Syrian hamster embryo (SHE) cells, Assay Type: Cell transformation, clonal assay, Assay Code: CTC-, Evaluation Type: Evaluation A (Pre-1980)
  mutagenic call: inactive; negative

## CN(C)c1ccc(N=Nc2ccccc2)cc1
[9]
  mutagenic call: no conclusion
Species/Cell Type: Drosophila melanogaster, Assay Type: Sex-linked recessive lethal gene mutation, Assay Code: SRLT, Evaluation Type: Evaluation A (Pre-1980)
  mutagenic call: no conclusion
Species/Cell Type: Escherichia coli polA (W3110 vs P3478), Assay Type: Rec-assay, DNA effects (bacterial DNA repair), Assay Code: RE2-, Evaluation Type: Evaluation A (Pre-1980)
  mutagenic call: inactive; negative
[6]
  mutagenic call: no conclusion
Species/Cell Type: Fischer rat embryo (RLV/1706) cells, Assay Type: Cell transformation, viral enhanced, Assay Code: CTR+, Evaluation Type: Evaluation A (Pre-1980)
  mutagenic call: active; positive
Species/Cell Type: Human diploid fibroblasts, Assay Type: Unscheduled DNA synthesis (UDS) in vitro, DNA effects, Assay Code: UDHT, Evaluation Type: Evaluation A (Pre-1980)
  mutagenic call: no conclusion
Species/Cell Type: Mammalian polychromatic erythrocytes, Assay Type: Micronucleus test, chromosome aberrations, Assay Code: MNT+, Evaluation Type: Evaluation A (Pre-1980)
  mutagenic call: active; positive
Species/Cell Type: Mouse (BALB/c-3T3) cells, Assay Type: Cell transformation, Assay Code: CTB-, Evaluation Type: Evaluation A (Pre-1980)
  mutagenic call: inactive; negative
Species/Cell Type: Mouse, Sex: Male, Assay Type: Sperm morphology, Assay Code: SPI-, Evaluation Type: Evaluation A (Pre-1980)
  mutagenic call: inactive; negative
Species/Cell Type: Nonhuman, Assay Code: CCG+, Evaluation Type: Evaluation A (Pre-1980)
  call: active; positive
Species/Cell Type: Nonhuman, Assay Type: Sister-chromatid exchange (SCE) in vitro, Assay Code: SC2+D*, Activation: With metabolic activation, Dose Response: With dose response, Evaluation Type: Evaluation B (Post-1980)
  mutagenic call: active; positive
Species/Cell Type: Nonhuman, Assay Type: Sister-chromatid exchange (SCE) in vivo, Assay Code: SC3+, Evaluation Type: Evaluation B (Post-1980)
  mutagenic call: active; positive
[7]
  mutagenic call: inactive; negative
Species/Cell Type: Salmonella typhimurium (one or more of the five standard strains: TA98, TA100, TA1535, TA1537, and TA1538), Assay Type: Histidine reverse gene mutation, Ames assay, Assay Code: SAL+*, Activation: With metabolic activation, Evaluation Type: Evaluation A (Pre-1980)
  mutagenic call: active; positive
Species/Cell Type: Salmonella typhimurium, Assay Type: Forward and reverse gene mutation, body fluid assay, Assay Code: BFU+, Evaluation Type: Evaluation A (Pre-1980)
  mutagenic call: active; positive
Species/Cell Type: Syrian hamster embryo (SHE) cells, Assay Type: Cell transformation, clonal assay, Assay Code: CTCT, Evaluation Type: Evaluation A (Pre-1980)
  mutagenic call: no conclusion

## O[C@H]1[C@@H]2O[C@@H]2c2cc3ccc4cccc5ccc(c2[C@@H]1O)c3c45
Species/Cell Type: Mouse prostate cells, Assay Type: Cell transformation, Assay Code: CTM-, Evaluation Type: Evaluation A (Pre-1980)
  mutagenic call: inactive; negative

## O=C(c1ccccc1)C(O)c1ccccc1 (stereo not drawn)
Species/Cell Type: Nonhuman, Assay Code: CCG-L, Evaluation Type: Evaluation A (Pre-1980)
  call: inactive; negative

## OC1c2ccccc2C2OC2[C@H]1O (stereo partly drawn)
[1]
  mutagenic call: active; positive

## O=C(Nc1cccc(Cl)c1)OCC#CCCl
Species/Cell Type: Bacillus subtilis (H17 vs M45), Assay Type: Rec-assay, spot test, DNA effects (bacterial DNA repair), Assay Code: REW+, Evaluation Type: Evaluation A (Pre-1980)
  mutagenic call: active; positive

## Cc1ccc2oc(=O)ccc2c1
Species/Cell Type: Allium cepa, Assay Type: Chromosome aberrations, Assay Code: ALC+D, Dose Response: With dose response, Evaluation Type: Evaluation A (Pre-1980)
  mutagenic call: active; positive
Species/Cell Type: Nonhuman, Assay Type: Chromosome aberrations in vitro, Assay Code: CY&+, Evaluation Type: Evaluation A (Pre-1980)
  mutagenic call: active; positive

## Nc1ccc(O)c2c1C(=O)c1ccccc1C2=O
[3]
  mutagenic call: active; positive

## O=S(=O)(O)c1ccc(N=Nc2ccc(O)c3ccccc23)cc1
[5]
  mutagenic call: no conclusion
[9]
  mutagenic call: no conclusion
[8]
  mutagenic call: inactive; negative
